For this test, the system named is T1, endo-1,4-β-xylanase.
T1 construct: gene GH10 xylanase; codon-optimised synthetic gene in pET26b(+); N-terminal PelB leader, C-terminal 6xHis, tags kept; ~81 kDa; E. coli BL21(DE3)
Briefly: fluorescence of released CMU (ex […] nm, em […] nm), Lineweaver-Burk. The class given is biochemical, uncultured bacterium. The conditions noted are these: pH 7, 37°C, 50 mM sodium phosphate.

The structures appear in SMILES notation.

Turning to `Cc1cc(=O)oc2cc(O[C@@H]3OC[C@@H](O[C@@H]4OC[C@@H](O)[C@H](O)[C@H]4O)[C@H](O)[C@H]3O)c(Cl)cc12` [CMU-X2, 6-chloro-4-methylumbelliferyl xylobioside], the Km is 32 ± 4.72 µM.

Source of the values: publication PMC6314593, “Characterization of novel lignocellulose-degrading enzymes from the porcupine microbiome using synthetic metagenomics” (PLoS ONE, 2019).
